Series [1] addresses human Somatostatin 4 receptor (SSTR4) (Homo sapiens (Human), UniProt P31391). Briefly: cAMP assay with human somatostatin 4 receptor (hSSTR4 expressing H4 cells). Type of series: cell-based. To be noted: read-out: SSTR4 agonism EC50. The procedure: Method Description for cAMP Assay with Human Somatostatin 4 Receptor
The activation of the SSTR4 receptor (Gi coupled) causes an inhibition of intracellular cAMP after stimulation with Forskolin, which can be quantifiable by use of a suitable assay Kit and an adequate plate reader. This technique is used to characterize pharmacological effects of the SSTR4 receptor agonists by use of hSSTR4 expressing H4 cells.
Compounds are dissolved and diluted in DMSO. The final test solution contains 1% DMSO. […] Cells are centrifuged and suspended in assay buffer (incl. 1:100 diluted Alexa antibody).
For the assay 5 μl of a cell suspension (approximately 5000 cells/well)—incl. Alexa antibody (diluted 1:100) are added into a 384 well MTP microtitre plate excepting one row or column (depending on the plate layout), which is reserved for the standard curve. Then 2 μl of compound sample is added as concentration response curve (e.g. 1e-5 M to 6e-10 M), usually in triplicates. Each assay contains incubations with vehicle controls instead of compound as controls for non-inhibited cAMP generation (100% CTL; ‘high values’) and incubations with 1 μM Somatosatin as controls for full inhibition and background (0% CTL; ‘low values’). […] Then the plates are shaken briefly and incubated for 60 min at room temperature. After 60 min 10 μl of the detection mix is added into all wells followed by an additional incubation period of 1 h. The plates are read in a suitable plate reader.
From this ratio, cAMP concentrations are calculated from standard curve and the EC50 is estimated by least square curve fit program.
In general terms: Changes in cAMP serve as a functional read-out for many G protein-coupled receptors.

Series [2] in a line: Metabolic stability in pooled human liver microsomes (half-life). Type of series: in vitro ADME. To be noted: 1 μM test compound; for Half-life t1/2: 37° C.; for half-life at 1 μM: pH 7.6, 37° C., read-out: Half-life t1/2. The procedure: The metabolic stability of the compounds according to the invention may be investigated as follows:
The metabolic degradation of the test compound is assayed at 37° C. with pooled human liver microsomes. The final incubation volume of 100 μl per time point contains TRIS buffer pH 7.6 at room temperature (0.1 M), magnesium chloride (5 mM), microsomal protein (1 mg/mL) and the test compound at a final concentration of 1 μM. Following a short preincubation period at 37° C., the reactions are initiated by addition of beta-nicotinamide adenine dinucleotide phosphate, reduced form (NADPH, 1 mM), and terminated by transferring an aliquot into solvent after different time points. After centrifugation (10000 g, 5 min), an aliquot of the supernatant is assayed by LC-MS/MS for the amount of parent compound. The half-life is determined by the slope of the semi-logarithmic plot of the concentration-time profile.

Series [3] has as its target human SSTR4 (Homo sapiens (Human), UniProt P31391). Briefly: Radioligand binding assay, CHO cell membranes expressing recombinant human SSTR4. To be noted: [3-125I-Tyr]-Somatostatin-(1-14). The procedure:
Receptor binding assays refer to a technique in which labeled receptor ligands are used to detect binding to a receptor. In competition experiments test compounds, which are not labeled, compete with the binding side of a labeled ligand. The displacement of the labeled ligand by the test compound leads to a decreased signal.
For the binding experiments 200 μL of membrane homogenate from one of the following protein amounts is used: hSSTR1 (40 μg/well); hSSTR2 (25 μg/well); hSSTR3 (1.5 μg/well); hSSTR4 (0.5 μg/well); hSSTR5 (25 μg/well). […] The protein-bound radioactivity is measured in a suitable reader. The non-specific binding is defined as radioactivity bound in the presence of 1 μM Somatostatin-14 during the incubation period.
The analysis of the concentration-binding curves is performed by computer-assisted nonlinear least square curve fitting method using the model of one receptor binding site.

Sequence of human Somatostatin 4 receptor (SSTR4) (P31391 whole entry): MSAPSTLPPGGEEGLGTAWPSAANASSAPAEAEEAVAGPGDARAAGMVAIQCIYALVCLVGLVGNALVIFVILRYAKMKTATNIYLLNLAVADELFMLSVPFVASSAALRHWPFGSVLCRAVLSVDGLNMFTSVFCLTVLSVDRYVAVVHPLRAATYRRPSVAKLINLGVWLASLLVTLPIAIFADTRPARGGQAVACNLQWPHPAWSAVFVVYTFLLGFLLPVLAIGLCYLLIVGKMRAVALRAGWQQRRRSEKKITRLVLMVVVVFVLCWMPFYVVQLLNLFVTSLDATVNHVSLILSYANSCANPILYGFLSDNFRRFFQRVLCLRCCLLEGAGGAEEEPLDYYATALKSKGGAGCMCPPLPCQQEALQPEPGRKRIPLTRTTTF
Sequence of human SSTR4 (P31391 whole entry): as above

As usually defined, the EC50 is the concentration at which the effect is half-maximal. As to `O=C(NC1CCCCC1c1ccccc1)[C@H]1[C@@H]2CNC[C@@H]21` (stereo partly drawn) [Example 9], in series [1], the EC50 was found to be 536 nM.
With `CC(C)(COc1cccnc1C(F)(F)F)NC(=O)[C@H]1[C@@H]2CNC[C@@H]21.Cl` [Example 18], in series [2], the “Half-life t1/2” value is given as greater than 130 min.
Still for that read-out and setting: the result for `CC(C)(NC(=O)[C@H]1[C@@H]2CNC[C@@H]21)c1cnc2ccccn12.Cl` [Example 20] reads greater than 130 min.
In the case of `CC(C)(NC(=O)[C@H]1[C@@H]2CNC[C@@H]21)c1ccnc2ccccc12.Cl` [Example 21], in series [2], the “Half-life t1/2” value was greater than 130 min.
`Cc1cc2ccccc2c(C(C)(C)NC(=O)[C@H]2[C@@H]3CNC[C@@H]32)n1.Cl` [Example 22]: the “Half-life t1/2” value in series [2] was greater than 130 min.
In the case of `CC(C)(NC(=O)[C@H]1[C@@H]2CNC[C@@H]21)c1ncccc1C(F)(F)F.Cl` [Example 23], in series [2], the “Half-life t1/2” value is listed as greater than 130 min.
The same measure, in the same setting: with `CC(C)(NC(=O)[C@H]1[C@@H]2CNC[C@@H]21)c1nccc2ccccc12.Cl` [Example 24] the figure was greater than 130 min.
`Cc1cccnc1C(C)(C)NC(=O)[C@H]1[C@@H]2CNC[C@@H]21.Cl.Cl` [Example 25]: the “Half-life t1/2” value in series [2] is on record as greater than 130 min.
As for `CCc1ccccc1OCC(C)(C)NC(=O)[C@H]1[C@@H]2CNC[C@@H]21` [Example 39], the “Half-life t1/2” value in series [2] is recorded as greater than 130 min.
Still for that read-out and setting: with `Cc1ncccc1OCC(C)(C)NC(=O)[C@H]1[C@@H]2CNC[C@@H]21.Cl` [Example 44] the figure was greater than 130 min.
On to `Cc1cc(C2CC2)ccc1OCC(C)(C)NC(=O)[C@H]1[C@@H]2CNC[C@@H]21` [Example 65], for which, in series [2], the half-life at 1 μM is greater than 130 min.
Take `Cc1ccnnc1OCC(C)(C)NC(=O)[C@H]1[C@@H]2CNC[C@@H]21.Cl` [Example 67]: the “Half-life t1/2” value in series [2] is on record as greater than 130 min.
Still for that read-out and setting: with `CC(C)(NC(=O)[C@H]1[C@@H]2CNC[C@@H]21)c1ncc2ccccn12.Cl` [Example 68] the figure was greater than 130 min.
As a reminder, the Ki is the equilibrium dissociation constant of an inhibitor or competing ligand from its target. For `Cc1cccc2c(C(C)(C)NC(=O)[C@H]3[C@@H]4CNC[C@@H]43)n[nH]c12` [Example 93], in series [2], the half-life at 1 μM was greater than 130 min. Also, in series [3], the Ki came to 3.6 nM. In addition, the EC50 in series [1] was determined as 0.1 nM.
Take `CC(C)(NC(=O)[C@H]1[C@@H]2CNC[C@@H]21)c1n[nH]c2ccccc12` [Example 94]: in series [2], the half-life at 1 μM is greater than 130 min. Moreover, the EC50 in series [1] is 1.6 nM.
As for `CC(C)(NC(=O)[C@H]1[C@@H]2CNC[C@@H]21)c1noc2c(F)cccc12` [Example 101], the “Half-life t1/2” value in series [2] is listed as greater than 130 min.
As to `CC(C)(NC(=O)[C@H]1[C@@H]2CNC[C@@H]21)c1n[nH]c2c(C(F)(F)F)cccc12` [Example 110], in series [2], the half-life at 1 μM is greater than 130 min. Besides, the EC50 in series [1] was determined as 0.7 nM.
In the case of `CC(C)(NC(=O)[C@H]1[C@@H]2CNC[C@@H]21)c1nc(C2CC2)c2ccccn12.Cl` [Example 120], in series [2], the “Half-life t1/2” value is recorded as greater than 130 min.
As to `Cc1cccn2c(C(C)(C)NC(=O)[C@H]3[C@@H]4CNC[C@@H]43)ncc12.Cl` [Example 126], the “Half-life t1/2” value in series [2] was greater than 130 min.
Regarding `Cc1cccn2c(C(C)(C)NC(=O)[C@H]3[C@@H]4CNC[C@@H]43)nc(C)c12.Cl` [Example 130], the half-life at 1 μM in series [2] was greater than 130 min. Also, in series [1], the EC50 is 0.3 nM.
With `CC(C)(NC(=O)[C@H]1[C@@H]2CNC[C@@H]21)c1ncc2c(F)cccn12.Cl` [Example 133], in series [2], the “Half-life t1/2” value is listed as greater than 130 min.
Consider `Cc1nc(C(C)(C)NC(=O)[C@H]2[C@@H]3CNC[C@@H]32)c2ccccc2n1` [Example 138], for which the “Half-life t1/2” value in series [2] was greater than 130 min.

(Values after patent US10166214B2, “Somatostatin receptor subtype 4 (SSTR4) agonists” (Centrexion Therapeutics Corporation, priority 2013, dated 2019).)
